Literature values in US5258185A (priority 1989, dated 1993).

Tests used:
[1] = e.g. incorporation in melts of high molecular polyethylene glycols
[2] = not given; remark: listed apart in the source
[3] = extremely fine crystallizates, surface size 3 to 10 m^2 (DE-OS 23 48 334)

In the case of `COc1ccc(Cl)cc1C(=O)NCCc1ccc(S(=O)(=O)NC(=O)NC2CCCCC2)cc1` [Glibenclamide, N-4-(5-chloro-[2-methoxy-benzamido)ethyl]phenylisulfonyl-N'-cyclohexyl urea], the “effect of processing at elevated temperatures on stability” value [1] is listed as “detrimental to stability”, the “bioavailability with increase in surface” value [3] is listed as “improving the bioavailability” and the “drug release and bioavailability of micronized glibenclamide” value (micronized, mean particle size ±5 μm, above all in the presence of tensides) is listed as “improved drug release and bioavailability”. The “water solubility depending on pH” value ([2]; acidic range) was “virtually water-insoluble”, the solubility in alcohol ([2]; alcohol) was “only moderately soluble” and the solubility in chloroform ([2]; chloroform) was “only moderately soluble”. For the same molecule, the solubility in ether ([2]; ether) was “virtually insoluble”, the “solubility and dissolution rate with increase in surface” value [2, 3] was “increase in solubility and dissolution rate” and the solubility in water ([2]; water) was “virtually insoluble”.
